Results reported in ChEMBL document CHEMBL1201862, “PubChem BioAssay data set” (2004).
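Step 1: Grow cells in 96-well plates. Step 2: Expose to compound for 48 hours at 5 concentrations. Step 3: Interpolate endpoints linearly; if unreached, use highest concentration. GI50: concentration for 50% inhibition of growth.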 Activity calls are given as the source filed them. Rule as the data show it: active = GI50 up to about 1.1 µM and inactive = higher.

Key:
Experiment in all cases: NCI-60 cell line screen, 48 h
A498 = test system: A498
Malme-3M = test system: Malme-3M
DMS-273 = test system: DMS-273
HOP-92 = test system: HOP-92
M19-MEL = test system: M19-MEL
LOX IMVI = test system: LOX IMVI
NCI-H23 = test system: NCI-H23
OVCAR-3 = test system: OVCAR-3
UO-31 = test system: UO-31
COLO 205 = test system: COLO 205
DLD-1 = test system: DLD-1
HCT-116 = test system: HCT-116
HCT-15 = test system: HCT-15
MOLT-4 = test system: MOLT-4
HOP-62 = test system: HOP-62
UACC-257 = test system: UACC-257
KM12 = test system: KM12
SK-MEL-5 = test system: SK-MEL-5
SF-268 = test system: SF-268
SNB-75 = test system: SNB-75
ACHN = test system: ACHN
KM-20L2 = test system: KM-20L2
LXFL 529 = test system: LXFL 529
SK-MEL-2 = test system: SK-MEL-2
DMS-114 = test system: DMS-114
M14 = test system: M14
EKVX = test system: EKVX
K562 = test system: K562
SW-620 = test system: SW-620
A549 = test system: A549
TK-10 = test system: TK-10
NCI-H226 = test system: NCI-H226
CAKI-1 = test system: CAKI-1
HT-29 = test system: HT-29
SNB-78 = test system: SNB-78
SR = test system: SR
NCI-H522 = test system: NCI-H522
HL-60 = test system: HL-60
RXF 393 = test system: RXF 393
OVCAR-8 = test system: OVCAR-8
XF498 = test system: XF498
SF-295 = test system: SF-295
SK-OV-3 = test system: SK-OV-3
RPMI-8226 = test system: RPMI-8226
CCRF-CEM = test system: CCRF-CEM
SNB-19 = test system: SNB-19
IGROV-1 = test system: IGROV-1
U-251 = test system: U-251
SK-MEL-28 = test system: SK-MEL-28
RXF 631 = test system: RXF 631
SN12C = test system: SN12C
786-0 = test system: 786-0
HCC 2998 = test system: HCC 2998
HOP-18 = test system: HOP-18
NCI-H460 = test system: NCI-H460
UACC-62 = test system: UACC-62
OVCAR-5 = test system: OVCAR-5
OVCAR-4 = test system: OVCAR-4
SF-539 = test system: SF-539

CCOC(=O)C1(Br)C(c2ccccc2)NC(=O)NC1(C)Br (configuration not stated)
GI50 (A498): > 100 µM (inactive) | GI50 (Malme-3M): > 100 µM (inactive) | GI50 (DMS-273): 90.2 µM (inactive) | GI50 (HOP-92): > 100 µM (inactive) | GI50 (M19-MEL): 64.1 µM (inactive) | GI50 (LOX IMVI): 38.3 µM (inactive) | GI50 (NCI-H23): 67.3 µM (inactive) | GI50 (OVCAR-3): 62.5 µM (inactive) | GI50 (UO-31): > 100 µM (inactive) | GI50 (COLO 205): 65.3 µM (inactive) | GI50 (DLD-1): 55.7 µM (inactive) | GI50 (HCT-116): 60.4 µM (inactive) | GI50 (HCT-15): > 100 µM | GI50 (MOLT-4): 73.3 µM (inactive) | GI50 (HOP-62): > 100 µM (inactive) | GI50 (UACC-257): 82 µM (inactive) | GI50 (KM12): > 100 µM (inactive) | GI50 (SK-MEL-5): 57.4 µM (inactive) | GI50 (SF-268): > 100 µM (inactive) | GI50 (SNB-75): > 100 µM (inactive) | GI50 (ACHN): > 100 µM (inactive) | GI50 (KM-20L2): > 100 µM (inactive) | GI50 (LXFL 529): 92.5 µM (inactive) | GI50 (SK-MEL-2): > 100 µM (inactive) | GI50 (DMS-114): 28.9 µM (inactive) | GI50 (M14): 82.8 µM (inactive) | GI50 (EKVX): 95.3 µM (inactive) | GI50 (K562): 39.8 µM (inactive) | GI50 (SW-620): 0.332 µM (active) | GI50 (A549): > 100 µM (inactive) | GI50 (TK-10): > 100 µM (inactive) | GI50 (NCI-H226): > 100 µM (inactive) | GI50 (CAKI-1): 18.5 µM (inactive) | GI50 (HT-29): > 100 µM (inactive) | GI50 (SNB-78): > 100 µM (inactive) | GI50 (SR): 57.1 µM (inactive) | GI50 (NCI-H522): 30.3 µM (inactive) | GI50 (HL-60): 17.9 µM (inactive) | GI50 (RXF 393): 25.1 µM (inactive) | GI50 (OVCAR-8): 89.3 µM (inactive) | GI50 (XF498): 52.2 µM (inactive) | GI50 (SF-295): > 100 µM (inactive) | GI50 (SK-OV-3): > 100 µM (inactive) | GI50 (RPMI-8226): 62.2 µM (inactive) | GI50 (CCRF-CEM): 33.9 µM (inactive) | GI50 (SNB-19): 19 µM (inactive) | GI50 (IGROV-1): 54.6 µM (inactive) | GI50 (U-251): 16.4 µM (inactive) | GI50 (SK-MEL-28): > 100 µM (inactive) | GI50 (RXF 631): 46.6 µM (inactive) | GI50 (SN12C): 59.6 µM (inactive) | GI50 (786-0): 38.3 µM (inactive) | GI50 (HCC 2998): > 100 µM (inactive) | GI50 (HOP-18): > 100 µM (inactive) | GI50 (NCI-H460): > 100 µM (inactive) | GI50 (UACC-62): 52.8 µM (inactive) | GI50 (OVCAR-5): > 100 µM (inactive)

CCOc1cccc2nc3cccc(C(=O)NCCN(C)C)c3nc12
GI50 (A498): 0.74 µM (active) | GI50 (Malme-3M): 0.995 µM (active) | GI50 (DMS-273): 0.582 µM (active) | GI50 (HOP-92): 1.39 µM (inactive) | GI50 (M19-MEL): 1.2 µM (inactive) | GI50 (LOX IMVI): 0.48 µM (active) | GI50 (NCI-H23): 1.39 µM (inactive) | GI50 (OVCAR-3): 1.6 µM (inactive) | GI50 (UO-31): 2.19 µM (inactive) | GI50 (COLO 205): 0.632 µM (active) | GI50 (DLD-1): 1.05 µM (active) | GI50 (HCT-116): 0.447 µM (active) | GI50 (HCT-15): 1.08 µM | GI50 (OVCAR-4): 1.19 µM (inactive) | GI50 (MOLT-4): 0.333 µM (active) | GI50 (HOP-62): 0.469 µM (active) | GI50 (UACC-257): 1.95 µM (inactive) | GI50 (KM12): 0.867 µM (active) | GI50 (SK-MEL-5): 1.78 µM (inactive) | GI50 (SNB-75): 1.45 µM (inactive) | GI50 (ACHN): 0.372 µM (active) | GI50 (KM-20L2): 1.27 µM (inactive) | GI50 (LXFL 529): 1.79 µM (inactive) | GI50 (SK-MEL-2): 1.6 µM (inactive) | GI50 (DMS-114): 1.03 µM (active) | GI50 (M14): 2.19 µM (inactive) | GI50 (EKVX): 2.25 µM (inactive) | GI50 (K562): 0.47 µM (active) | GI50 (SW-620): 0.543 µM (active) | GI50 (A549): 0.942 µM (active) | GI50 (TK-10): 1.27 µM (inactive) | GI50 (SF-539): 1.14 µM (inactive) | GI50 (NCI-H226): 0.506 µM (active) | GI50 (CAKI-1): 3.16 µM (inactive) | GI50 (HT-29): 0.605 µM (active) | GI50 (SNB-78): 1.88 µM (inactive) | GI50 (SR): 0.305 µM (active) | GI50 (NCI-H522): 2.3 µM (inactive) | GI50 (RXF 393): 1.59 µM (inactive) | GI50 (OVCAR-8): 0.891 µM (active) | GI50 (XF498): 0.116 µM (active) | GI50 (SF-295): 1.53 µM (inactive) | GI50 (SK-OV-3): 7.43 µM (inactive) | GI50 (RPMI-8226): 0.948 µM (active) | GI50 (SNB-19): 1.89 µM (inactive) | GI50 (IGROV-1): 1.04 µM (active) | GI50 (U-251): 1.34 µM (inactive) | GI50 (SK-MEL-28): 1.93 µM (inactive) | GI50 (RXF 631): 2.6 µM (inactive) | GI50 (SN12C): 0.719 µM (active) | GI50 (786-0): 2.51 µM (inactive) | GI50 (HCC 2998): 0.946 µM (active) | GI50 (HOP-18): 3.94 µM (inactive) | GI50 (UACC-62): 1.47 µM (inactive) | GI50 (OVCAR-5): 2.02 µM (inactive)

OCC1OC(c2nc(C3=NCCCN3)cs2)C(O)C1O (configuration not stated)
GI50 (A498): > 100 µM (inactive) | GI50 (Malme-3M): > 100 µM (inactive) | GI50 (DMS-273): > 100 µM (inactive) | GI50 (HOP-92): > 100 µM (inactive) | GI50 (M19-MEL): > 100 µM (inactive) | GI50 (LOX IMVI): > 100 µM (inactive) | GI50 (NCI-H23): > 100 µM (inactive) | GI50 (OVCAR-3): > 10 µM (inactive) | GI50 (UO-31): > 100 µM (inactive) | GI50 (COLO 205): > 100 µM (inactive) | GI50 (DLD-1): > 100 µM (inactive) | GI50 (HCT-116): > 100 µM (inactive) | GI50 (HCT-15): > 100 µM | GI50 (OVCAR-4): > 100 µM (inactive) | GI50 (MOLT-4): > 100 µM (inactive) | GI50 (HOP-62): > 100 µM (inactive) | GI50 (UACC-257): > 100 µM (inactive) | GI50 (KM12): > 10 µM (inactive) | GI50 (SF-268): > 100 µM (inactive) | GI50 (ACHN): > 100 µM (inactive) | GI50 (KM-20L2): > 100 µM (inactive) | GI50 (LXFL 529): > 100 µM (inactive) | GI50 (SK-MEL-2): > 100 µM (inactive) | GI50 (DMS-114): > 100 µM (inactive) | GI50 (M14): > 100 µM (inactive) | GI50 (EKVX): > 100 µM (inactive) | GI50 (K562): > 100 µM (inactive) | GI50 (SW-620): > 100 µM (inactive) | GI50 (A549): > 100 µM (inactive) | GI50 (TK-10): > 100 µM (inactive) | GI50 (SF-539): > 100 µM (inactive) | GI50 (NCI-H226): > 100 µM (inactive) | GI50 (CAKI-1): > 100 µM (inactive) | GI50 (HT-29): > 100 µM (inactive) | GI50 (SNB-78): > 100 µM (inactive) | GI50 (NCI-H522): > 100 µM (inactive) | GI50 (HL-60): > 100 µM (inactive) | GI50 (OVCAR-8): > 100 µM (inactive) | GI50 (XF498): > 100 µM (inactive) | GI50 (SF-295): > 10 µM (inactive) | GI50 (SK-OV-3): > 100 µM (inactive) | GI50 (RPMI-8226): > 100 µM (inactive) | GI50 (CCRF-CEM): > 100 µM (inactive) | GI50 (SNB-19): > 100 µM (inactive) | GI50 (IGROV-1): > 100 µM (inactive) | GI50 (U-251): > 100 µM (inactive) | GI50 (SK-MEL-28): > 100 µM (inactive) | GI50 (RXF 631): > 100 µM (inactive) | GI50 (SN12C): > 100 µM (inactive) | GI50 (786-0): > 100 µM (inactive) | GI50 (HCC 2998): > 100 µM (inactive) | GI50 (HOP-18): > 100 µM (inactive) | GI50 (NCI-H460): > 100 µM (inactive) | GI50 (UACC-62): > 100 µM (inactive) | GI50 (OVCAR-5): > 100 µM (inactive)
